Literature values as cited in article PMC4763008, “Selective Inhibition of Bakuchicin Isolated from Psoralea corylifolia on CYP1A in Human Liver Microsomes” (Evidence-based Complementary and Alternative Medicine : eCAM, 2016).

Key:
[1] = biological target: T1, CYP1A (Homo sapiens, UniProt P05177); conditions: human liver microsomes ref 17; cited from earlier work
T1 sequence (P05177 2-516): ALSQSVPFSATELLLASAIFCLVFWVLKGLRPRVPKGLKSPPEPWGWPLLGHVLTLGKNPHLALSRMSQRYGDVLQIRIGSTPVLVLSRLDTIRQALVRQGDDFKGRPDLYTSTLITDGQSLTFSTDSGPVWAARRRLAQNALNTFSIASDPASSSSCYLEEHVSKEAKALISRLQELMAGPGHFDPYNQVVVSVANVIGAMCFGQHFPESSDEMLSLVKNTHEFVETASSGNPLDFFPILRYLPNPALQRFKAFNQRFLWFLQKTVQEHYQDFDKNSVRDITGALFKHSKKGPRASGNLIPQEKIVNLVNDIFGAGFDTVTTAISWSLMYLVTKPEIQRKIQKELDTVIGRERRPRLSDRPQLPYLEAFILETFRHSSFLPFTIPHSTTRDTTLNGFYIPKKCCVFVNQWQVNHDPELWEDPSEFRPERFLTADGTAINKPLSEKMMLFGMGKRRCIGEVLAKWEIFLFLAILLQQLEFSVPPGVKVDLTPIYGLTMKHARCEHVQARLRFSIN

[2] = system: CYP1A; conditions: rat liver microsomes ref 17; cited from earlier work

Structure (SMILES)	type of inhibitor [1]	type of inhibitor [2]
O=c1ccc2ccc3occc3c2o1 [isopsoralen]	reversible and time-dependent inhibitor	reversible and time-dependent inhibitor
O=c1ccc2cc3ccoc3cc2o1 [psoralen]	reversible and time-dependent inhibitor	reversible and time-dependent inhibitor
